Assay results taken from a melting point compilation (Tetko et al.; mined from patent text by program, amines drawn as free bases though some values may be those of a salt).

SMILES | melting point [°C]
NS(=O)(=O)c1ccc2c(c1)CNC(C1CCCCC1)N2 (configuration not stated) | 178 to 180
O=C(O)c1nn(-c2ccc(Cl)cc2Cl)c2c1CCCC2 | 239 to 240
CN1Cc2c(-c3noc(CCl)n3)ncn2-c2ccc(Cl)cc2C1=O | 229
CCc1nc(=O)[nH]c2sccc12 | 217 to 220
COC(=O)NC12CC=CCC1CCc1ccc(OC)cc12 (configuration not stated) | 120 to 122
COC(=O)N1C(C)=NC(C)=C(C(=O)NCCCN2CCC(C(=O)OC)(c3ccccc3)CC2)C1c1ccc(F)c(F)c1 (configuration not stated) | 55 to 57
CCOCc1nc2c(N)nc3ccccc3c2n1CC1(O)CCN(C(=O)OC(C)(C)C)CC1 | 195 to 197
CCOC(=O)c1cn(NC=O)c2nc(C)ccc2c1=O | 214
O=C(O)CC1(CCl)OCCO1 | 64 to 65
CCOC(=O)c1ccc(NCCCc2ccccc2)cc1 | 80 to 83
CC1Cc2cc(OCc3ccccc3)c(Cl)c(Cl)c2C1=O (configuration not stated) | 153 to 155
O=C(Nc1ccc2[nH]ncc2c1)OC(c1cccc(C(=O)Nc2ccccc2)c1)[C@@H]1CCCCN1 (some centres not stated) | 150
NC(=O)CCC(O)c1ccccc1 (configuration not stated) | 74 to 75
CCOC(=O)Nc1ccccc1N1CC2(CCN(C)CC2)c2ccccc21 | 99.5 to 101
O=C(CN1C(=O)CC1S(=O)Cc1ccccc1)NCCCCCCc1ccccc1 (configuration not stated) | 138 to 140
COCCc1nc2c(N)nc3ccccc3c2n1CC1(O)CCCCC1 | 189 to 191
O=S(=O)(N[C@H]1CC[C@H](CCN2CCN(c3nccc4c3OCC4)CC2)CC1)c1ccccc1 | 122
CCOC(=O)c1ccc(NC(=O)OC(C)(C)C)cc1 | 149 to 150
O=C(O)CCCC/C=C(\c1ccc(-c2nc(C(=O)NCCCCCOc3ccccc3)co2)cc1)c1cccnc1 | 42 to 48
CCc1nc2c(N)nc3cc(-c4cnc5ccccc5c4)cnc3c2n1CC(C)(C)O | > 270
CC(C)(NC(=O)c1ccc([N+](=O)[O-])cc1)C(=O)CCl | 181 to 182
CC(=O)NC(=O)C(SC(C)=O)c1ccccc1 (configuration not stated) | 96
Clc1cc(-c2cnco2)nc(Cl)c1Cl | 128 to 130
O=C(NCc1ccccn1)Nc1cc(-n2c(=O)oc3ccccc32)ccn1 | 237 to 238
C[C@H]1CN(c2c(F)cc3c(=O)c(C(=O)O)cn(CCF)c3c2Cl)C[C@H]1N (relative stereo) | 234 to 236
CN1C(=O)C(C2=COc3ccccc3O2)=C(c2cn(C(=O)OC(C)(C)C)c3cc(OCc4ccccc4)ccc23)C1=O | 88

SMILES | melting point [°C]
O=C(CCCCl)c1ccc2ccccc2c1 | 43 to 44
COC(=O)c1cccc(COc2cccc(OCc3ccc4ccccc4n3)c2)c1 | 93 to 94
CC1(C)CCC(Cc2ccc(Cl)cc2)C1(O)CO (configuration not stated) | 103 to 104
CCN(CC)C(=O)C=C1C=C(C(C)(C)C)C(=O)C(C(C)(C)C)=C1 | 109 to 110
O=C1Nc2ccccc2C(=NO)C1=O | 241 to 242
O=C(O)c1ccc(C#Cc2ccc(OCC(O)CO)c(C34CC5CC(CC(C5)C3)C4)c2)cc1 (configuration not stated) | 300 to 302
Nc1ncnc2c1c(-c1ccc(Oc3ccccc3)cc1)cn2C1CCOC1 (configuration not stated) | 165 to 166
OC1CSC(Oc2cncc(-c3nccs3)c2)C(O)C1O (configuration not stated) | 204
CC(C)c1cc2c(=O)n3cc(C(N)=O)ccc3nc2s1 | 280 to 282
CNC(=O)C(C)(C)C(O)(Cn1cncn1)c1ccc(Cl)cc1Cl (configuration not stated) | 145 to 146
COc1ccc(CN2CCN(C(=S)C3(C)CCc4c(C)c(O)c(C)c(C)c4O3)CC2)c(OC)c1OC (configuration not stated) | 124 to 125
O=C(Cc1ccc(F)cc1F)c1ccc(Cl)nc1 | 93 to 95
CC(=O)c1c(C)c(NC(=O)OCC(Cl)(Cl)Cl)c(C)c2c1OCC2c1ccc(C(C)C)cc1 (configuration not stated) | 186 to 189
CCOP(=O)(Cc1ccc(-c2ccccc2)cc1)OCC | 55 to 58
COc1ccc(OCCCCCc2cc(C)on2)c(Cl)c1 | 45 to 47
NC1Cc2ccc(-c3ccc(=O)[nH]n3)cc2C1 (configuration not stated) | 228 to 229
OC1CC=C(c2ccc(Cl)cc2)CC1 (configuration not stated) | 108 to 112
Cc1nccn1-c1cc(N)cc(C(F)(F)F)c1 | 127 to 131
CN1c2ccccc2CC1COc1ccc(CC2SC(=O)N(C(c3ccccc3)(c3ccccc3)c3ccccc3)C2=O)cc1 (configuration not stated) | 62.5 to 65.5
O=C(C1CCCCC1)N1CC(=O)N(CCc2ccccc2)C(O)C1 (configuration not stated) | 134
Cn1cnc2c(=S)[nH]ccc21 | > 300
CC1=NC(NCc2ccc(O)c(OC(F)F)c2)C(C)(Cl)C=N1 (configuration not stated) | 167 to 168
Cc1oc(-c2ccccc2)nc1CCC(=O)c1ccc(CCC=O)cc1 | 92 to 93
CC(C)(C)OC(=O)Nc1cn(-c2cccnc2)nc1Cl | 125 to 128
NCC(=O)NC(Cc1ccncc1)c1ccccc1 (configuration not stated) | 145 to 147
Cc1cccc(-c2nc3ccc(OCC(C)N(C)C)cc3n2Cc2ccccc2)c1 (configuration not stated) | 74

SMILES | melting point [°C]
COC(=O)CC(=O)c1cc(C(=O)OC)cc(-n2cccc2)c1 | 82 to 84
CCCCCC(=O)N1CCN2C[C@@H](c3ccccc3)c3ccccc3[C@@H]2C1 (relative stereo) | 163 to 164
CCOC(=O)/C=C/c1cn(CC)nc1OCc1ccc(OCc2nc(-c3ccco3)oc2C)c(OC)c1 | 149 to 150
CC(C)Nc1nc2ccccn2c(=O)c1Br | 101 to 104
CN1C(=O)[C@H](NC(=O)CCc2ccco2)N=C(c2ccccc2)c2ccccc21 | 115 to 118
NC(=O)N(O)Cc1cccc2ccsc12 | 138 to 140
Cc1ccc(SN(C)C(=O)Oc2cccc3c2OC(C)(C)C3)cc1 | 62
COc1cccc([C@H]2O[C@H](Cc3nc(=O)o[nH]3)C(=O)N(CC(C)(C)C)c3ccc(Cl)cc32)c1OC | 130 to 133
CCCCCCCCCCCCCCCCOc1cc(NS(=O)(=O)c2cc([N+](=O)[O-])ccc2N2CCOCC2)c(OC(C)=O)cc1C | 95 to 96
CCOC(=O)c1sc(CBr)nc1C | 48 to 58
COc1ccc(-c2nc3cc4nc[nH]c(=O)c4cc3[nH]2)cc1 | > 300
CC(=O)N1CC(NC(=O)Nc2cccc(C)c2)C(=O)N(CC(=O)c2ccccc2C)c2ccccc21 (configuration not stated) | 215 to 217
O=c1c(OCC2CC2)cn(-c2cccc(C(F)(F)F)c2)nc1-c1ccnn1-c1ccccc1 | 72 to 78
CC(C)n1nc(-c2cc(C#N)cnc2-c2ccccc2)ccc1=O | 133 to 135
O=C(CNC(=O)CN1CCCC1=O)NCC(=O)Nc1ccncc1 | 250 to 253
Cc1c(-c2ccncc2)oc2c1C(=O)OC(C)C2 (configuration not stated) | 157 to 160
CC(=O)Nc1ccc(S(=O)(=O)c2ccc(Br)cc2)cc1 | 195 to 199
CCC(=O)Nc1ccc(Cl)c(-n2nc(CC)n(Cc3ccc(-c4ccccc4S(=O)(=O)NC(=O)OC(C)(C)C)cc3F)c2=O)c1 | 142 to 144
CCN(CC)C(=O)c1ccc([N+](=O)[O-])c(C)c1 | 74.5 to 76
CCOC(=O)C(=C(c1ccc(F)cc1)c1ccc(F)cc1)c1nnn(C)n1 | 117 to 118
CCOCc1nc2c(N)nc3cc(CCCN4CCOCC4)ccc3c2n1CC(C)(C)O | 132 to 133
CCCc1cn(Cc2ccc(C(=O)OC)cc2OC)c2cc(C=C(C)C(=O)O)ccc12 | 167 to 169
Cc1cccc(C=NN2CCN(C3c4ccccc4C=C(C#N)c4ccccc43)CC2)n1 (configuration not stated) | 200 to 202
CC(C)c1nn(-c2ccc(C(F)(F)F)cn2)cc1CCO | 74 to 75
O=C1CCC(c2ccc(Br)cc2)CC1 | 59.4 to 61.4
CCCCc1nc2cccc(C(=O)O)c2n1Cc1ccc(-c2cncnc2-c2nnn[nH]2)cc1 | 209 to 212

SMILES | melting point [°C]
CCC(CC)c1ccc(C(=O)OC)c2nc(Oc3c(C)cc(Cl)cc3Cl)n(C)c12 | 177 to 178
CC(C)OC(=O)C(C(=O)OC(C)C)=C1SC2C(S1)N(C)CCN2C (configuration not stated) | 93.6
CCS(=O)C1(Cl)CC2CC(=O)N2C1C(=O)OCc1ccccc1 (configuration not stated) | 123 to 125
Cc1ccccc1C1=NOC2(C1)OC(=O)c1ccccc12 (configuration not stated) | 146 to 149
Cc1cccc(NC(=O)CN2CCN(c3ncccc3C#N)CC2)c1 | 99 to 100
COC(=O)c1ccccc1OCCOc1cccc2oc(-c3ccccc3)cc(=O)c12 | 160 to 161
N#Cc1ccc(CCNC(=O)CC(=O)O)cc1 | 137 to 139
Cc1nc2cccc(OCc3ccccc3)c2[nH]1 | 119 to 121
CC(C)c1c(C=O)c(-c2ccc(F)cc2)n2c1CCCC2 | 100 to 101
CN1CCN(C(=O)c2ccc(-c3ccc4nnn(Cc5ccc6ncccc6c5)c4n3)cc2)CC1 | 156 to 158
CC1(C)CCC2=C(C1=O)C(c1ccc(F)c(Br)c1)C1=C(CCS1)N2 (configuration not stated) | > 270
O=C(O)C1C=CCn2c(=O)n(CCS)c(=O)n21 (configuration not stated) | 156 to 158
COC(=O)c1ccc2sccc2c1O | 94 to 95
O=C(O)c1cccc2c(=O)c3ccccc3[nH]c12 | > 300
COc1ccc(C2=NN(C3CCN(c4ncccn4)CC3)C(=O)[C@@H]3CC=CC[C@H]23)cc1OC | 163 to 166
COc1ccc(CCOCC(=O)O)cc1 | 82 to 84
CC(C)(C)n1nc(Cc2ccccc2)c2c(N)nc(-c3ccncc3)nc21 | 188 to 189
COC(=O)CCn1cnc2c(Cl)ncnc21 | 93.5
CC(CCCCCOCCc1ccccc1)NCC(O)c1ccc2c(n1)COC(c1ccccc1)O2 (configuration not stated) | 61 to 67
CCCCC1=NC2(CCCC2)C(=O)N1Cc1ccc(-c2ccccc2S(=O)(=O)Nc2onc(C)c2C)c(CN2CCCC2=O)c1 | 95 to 100
CCOC(=O)C(CCO)=C(c1cccc(OC)c1)c1cccc(OC)c1 | 102 to 104
Cc1nn(C2CCOC2)c(N)c1C#N (configuration not stated) | 134 to 135
CN(C)C(=N)Nc1ccccc1-c1ccc(Cl)cc1 | 150 to 152
CC(C)C(=O)C[C@@H](O)C(=O)O | 67 to 68
